Source: patent publication US20180296507A1, “REDOX-ACTIVATED GLYCOCONJUGATED PROCHELATORS” (ARIZONA BOARD OF REGENTS ON BEHALF OF THE UNIVERSITY OF …, priority 2013, published 2018)
“And” between values parts separate entries of the source, which are not always exact repeats. Equal values may be shown once. “Also recorded” adds a separate entry of the source. Values belong to the compound of their own block, whether it stands above or below them.

Tests used:
[1] = Aqueous solubility by UV-Vis absorption spectroscopy of saturated buffer solutions; assay type: physicochemical; settings: 5.0 mM TRIS buffer, pH 7.40; average ± SD of triplicate
Procedure: Solubility measurements. The effect of the sugar motif on the aqueous solubility of the synthesized prochelators was investigated by UV-Visible absorption spectroscopy. Determination of molar extinction coefficients of each compound in aqueous buffer (5.0 mM TRIS, pH 7.40) allowed measurement of their concentration at saturation. Stock solutions were prepared in DMSO and diluted in TRIS buffer (5.0 mM, pH 7.40). Buffer solutions containing identical amounts of DMSO (0.3% v/v) were used to obtain blank spectra. […] For solubility measurements, saturated solutions were centrifuged for 20 minutes at 3,200 rpm to remove any precipitate and concentrations were determined by UV-Vis spectroscopy. […] Measurements were done in a set of triplicates.

[2] = tested on: glucose transporters; assay: Competition assay of transporter-mediated uptake with 2-NBDG in Caco-2 cells (flow cytometry); assay type: cell-based, human; settings: compound 50 μM; for Competition with 2-NBDG for transporter-mediated uptake: Caco-2 cells, 2-NBDG 100 μM, 40 min; for Competition with 2-NBDG (decrease in intracellular fluorescence): CACO-2 cells, 30 min, 2-NBDG 200 μM
Procedure: Co-treatment with glucose (10 mM) and glucose transporter (GLUT1) inhibitor phloretin (100 μM, 30 min) are employed as positive controls. Experiments were conducted in triplicate and values shown are averages±standard deviation. Statistical analysis: ** p<0.01, *** p<0.001 as compared to the control.
(§1) The competition assays used fluorescently labeled glucose bioprobe 2-(N-(7-nitrobenz-2-oxa-1,3-diazol-4-yl)amino)-2-deoxyglucose (2-NBDG). […] Without wishing to limit the present invention to any theory or mechanism, it is believed that the glycoconjugation may offer an advantageous increase in cancer cell specificity due to the conjugate being a substrate for the GLUT1 transporter protein and thus taking advantage of its overexpression in cancer cells as compared to normal cells.
Competition assay of transporter-mediated uptake. Caco-2 cells were plated at 1×10^6 cells per well in 6-well plates and allowed to adhere for 36 hours. Growth media were then removed and cells were incubated for 12 hours in glucose-free EMEM. […] As a positive control, after starvation cells were treated with 100 μM phloretin for 30 minutes, then treated with EMEM containing 100 μM 2-NBDG for 40 minutes. Cells were washed with PBS (1 mL) and detached by addition of Trypsin-EDTA (400 μL) and incubation for 3 minutes at 37° C. Following addition of EMEM (1 mL), the cell suspensions were centrifuged at 125 g for 10 minutes. The resulting pellets were suspended in PBS (0.5 mL) and transferred to a flow cytometry tube. Cells were stored on ice and analyzed by flow cytometry within 1 hour. Data are obtained as the average of three sets of geometric means of the flow cytometry histogram, and plotted as the percent difference from the control plus/minus the standard deviation between three values.

[3] = tested on: CCD18-co cells; assay: MTT cytotoxicity assay in CCD18-co cells; assay type: cell-based, human; settings: 72 h exposure, average ± SD of triplicate
Procedure: (§2) Cell culture. Caco-2 (ATCC® HTB-37™) colorectal adenocarcinoma and CCD-18Co (ATCC® CRL-1459™) normal colon fibroblasts were cultured under a 5% CO2 humidified atmosphere at 37° C. in Eagle's Minimal Essential Medium (EMEM) supplemented with 10% fetal bovine serum (FBS), glutamine (2 mM), sodium pyruvate (1 mM), sodium bicarbonate (1.5 g/L), penicillin (100 units/mL), streptomycin (100 μg/mL) and human holo-transferrin (1.25 μM (1 mg/10 mL) prior to use. Flow cytometric analysis was performed at the University of Arizona Cytometry Core Facility (Arizona Cancer Center/Arizona Research Laboratories) using a FACSCanto II flow cytometer (BD Biosciences, San Jose, Calif.) equipped with an air-cooled 15-mW argon ion laser tuned to 488 nm. List mode data files consisting of 10,000 events gated on FSC (forward scatter) vs SSC (side scatter) were acquired and analyzed using CellQuest PRO software (BD Biosciences, San Jose, Calif.). Appropriate electronic compensation was adjusted by acquiring cell populations stained with each dye/fluorophore individually, as well as an unstained control.
(§3) Cytotoxicity assays. The cytotoxicity of the prochelators were assessed using MTT (3-(4,5-dimethylthiazol-2-yl)-2,5-diphenyl-tetrazolium bromide) assays after 72-hour incubations (Table 2). In all cases, the prochelator conjugates are more toxic (lower IC50 values) in the malignant Caco-2 cells than in the normal CCD18-co cells.
(§4) MTT (3-(4,5-dimethylthiazol-2-yl)-2,5-diphenyltetrazolium bromide) viability assays were conducted by standard methods with slight modifications. Cells were seeded at 4000 cells per well for Caco-2 and 10,000 cells per well for CCD18-co and allowed to attach for 24 h. Test compounds dissolved in DMSO were diluted in EMEM to the specified concentration (with final DMSO concentration limited to 0.1%). Cells were incubated in the presence of the test compounds for 72 h, then the MTT solution (4 mg/mL, 10 μL) was added to each well and incubated for 4 h. Following media removal, DMSO (100 μL) was added to each well to dissolve the purple formazan crystals and the plates were incubated for an additional 30 minutes. Absorption at 560 nm was recorded and data were analyzed using logarithmic fits to obtain IC50 values. Each experiment was conducted in triplicate, and values are given as averages plus/minus standard deviation.

[4] = tested on: Caco-2 cells; assay: MTT cytotoxicity assay in Caco-2 cells; assay type: cell-based, human; settings: for IC50: 72 h exposure, average ± SD of triplicate
Procedure: as §2, §3, §4

[5] = tested on: glucose transporters; assay: Competition assay with 2-NBDG in MDA-MB-231 cells (flow cytometry); assay type: cell-based; settings: compound 25-100 μM, 30 min, 2-NBDG 200 μM
Source text: as §1

[6] = tested on: intracellular iron; assay: EPR experiments in whole leukemia cells; assay type: cell-based
Source text: Chelators (e.g., TC1SH, TC2SH, TC3SH) are released upon reduction of the disulfide bond. The reduced species (e.g., TC1SH, TC2SH, TC3SH) are tridentate iron chelators forming complexes of 2:1 ligand-to-metal stoichiometry. Magnetic measurements and X-ray crystallographic data on the resulting iron complexes (see FIG. 4, BF4^− counterion not shown) indicate that these chelators stabilize iron centers as low-spin Fe(III) species. […] The present invention is not limited to chelators that stabilize iron centers as low-spin Fe(III) species.

[7] = tested on: intracellular iron; assay: Calcein-based iron displacement assay in suspended Jurkat cells; assay type: cell-based
Source text: In some embodiments, intracellular activation and iron chelation may be investigated using a calcein-based iron displacement assay. This assay may confirm the activation of the prochelators for iron scavenging, and may also indicate the timeframe for cellular entry and iron binding. […] Data such as this may be collected for particular glycoconjugates to assess the duration of uptake and in particular to determine differences among systems carrying different connectivity (e.g., linker, position of glucose substitution) between the sugar and the prochelator units.

Concentration at saturation [1]: <5 μM and <3 mg/L
SMILES: COc1ccc(NC(=S)NN=Cc2ccccc2SSc2ccccc2C=NNC(=S)Nc2ccc(OC)cc2)cc1 [(TC4-S)2]

SMILES: COc1ccc(NC(=S)NN=Cc2ccccc2SSCCC(=O)NC2C(O)OC(CO)C(O)C2O)cc1 (stereo not shown) [GA2TC4]
Competition with 2-NBDG for transporter-mediated uptake [2]: did not compete for uptake with 2-NBDG
IC50 [3]: 22.5 ± 0.8 µM

Concentration at saturation [1]: 11 ± 1 μM and 4.7 ± 0.5 mg/L
SMILES: COC(=O)CCSSc1ccccc1C=NNC(=S)Nc1ccc(OC)cc1 [ATC4]
IC50 [3]: 27.5 ± 0.4 µM
Times more toxic in Caco-2 cells than in CCD18-co cells ([4]; MTT, 72 h): 3 times
IC50 ([4]; MTT): 8.1 ± 0.2 µM
Therapeutic Index ([4]; ratio of IC50 in normal CCD18-co cells relative to malignant Caco-2 cells): 3.4 ± 0.1

SMILES: COc1ccc(NC(=S)NN=Cc2ccccc2SSCCC(=O)OCC2OC(O)C(O)C(O)C2O)cc1 (stereo not shown) [Compound M6TC4]
Competition with 2-NBDG for transporter-mediated uptake [2]: competed successfully with 2-NBDG
IC50 [3]: 62.2 ± 0.1 µM
IC50 ([4]; MTT): 10.1 ± 0.3 µM

SMILES: O=C(CCSSc1ccccc1C=NNC(=S)Nc1ccccc1)NC1C(O)OC(CO)C(O)C1O (stereo not shown) [Compound G2TC1]
Uptake of 2-NBDG in the presence of compound [5]: decreased uptake of the fluorescent glycoconjugate

SMILES: O=C(CCSSc1ccccc1C=NNC(=S)Nc1ccccc1)OCC1OC(O)C(O)C(O)C1O (stereo not shown) [Compound G6TC1]
Competition with 2-NBDG (decrease in intracellular fluorescence) [2]: better competitors of 2-NBDG; also recorded: over three times the decrease due to G2TC1

SMILES: O=C(CCSSc1ccccc1C=NNC(=S)Nc1ccccc1)OCC1OC(O)C(O)C(O)C1O (stereo not shown) [Compound M6TC1]
Competition with 2-NBDG (decrease in intracellular fluorescence) [2]: better competitors of 2-NBDG

SMILES: COc1ccc(NC(=S)NN=Cc2ccccc2SSCCC(=O)OCC2OC(O)C(O)C(O)C2O)cc1 (stereo not shown) [Compound G6TC4]
Competition with 2-NBDG for transporter-mediated uptake [2]: competes strongly with 2-NBDG for uptake; also recorded: competes aggressively with fluorescent glycoconjugate 2-NBDG
IC50 [3]: 76 ± 2 µM
IC50 ([4]; MTT): 6.9 ± 0.4 µM

SMILES: S=C(N/N=C/c1ccccc1SSc1ccccc1/C=N/NC(=S)Nc1ccccc1)Nc1ccccc1 [(TC1S)2]
Intracellular reduction/activation and formation of low-spin Fe(III) complex [6]: direct evidence for both the reduction/activation
Timeframe of passive diffusion, activation and iron coordination [7]: within minutes
